Tests used:
HuH7 cells = test: MTS cell proliferation assay, HuH7; format: cell-based; conditions: Homo sapiens, Huh-7, 72-hour incubation
Method: (§1) Cell lines and culture conditions: Human colon cancer cells Caco-2, HT29 and HCT15, human pancreatic cancer cells BxPC3, CFPAC-1, and CAPAN-2, liver cancer cells SNU423 and kidney cells HEK293, were obtained from American Type Culture Collection (Rockville, USA). HeLa, DLD1, U937, THP-1, and NIH3T3 cells were obtained from ATCC. Huh7 cells were obtained from (Japanese Cancer Resources Bank). HeLa cells, Huh7, DLD1 and NIH-3T3 cells were cultured in DMEM (Dulbecco's modification of Eagle's Medium; Corning) supplemented with 10% Fetal Bovine Serum (FBS; Invitrogen) and 10% Fetal Calf Serum (FCS; Atlanta Biologicals) respectively. U937, BxPC3, HCT15, SNU423 and THP-1 cells were grown in RPMI-1640 (Roswell Park Memorial Institute; Corning) supplemented with 10% Fetal Bovine Serum (FBS; Invitrogen). CFPAC-1 cells were cultured in Iscove's Modified Dulbecco's Medium (ATCC) supplemented with 10% FBS. CAPAN-2 and HT29 cells were cultured in McCoy's 5a medium supplemented with 10% FBS. Caco2 and HEK293 cells were grown in Eagle's Minimum Essential Medium (ATCC) with final 20% FBS concentration. All cells were maintained at 37° C. in 5% CO2 at constant 70% humidity.
(§2) MTS cell proliferation assay: Cells were detached from the plates using trypsin (0.25% for 3 mins, ATCC) and counted using a hemocytometer and were plated at 3000-1500 cells per well, in a 96-well format. The cells were seeded in the inner wells of 96 well plates, and media was added to the outer wells (blank). For NIH-3T3, 1500 cells were seeded in the inner wells of 96-well plates, and after 20 hours cells were treated with compound or DMSO (vehicle control) at appropriate concentrations (DMSO at final concentration of 1%). For other adherent cells 3000 HeLa, BxPC3, CFPAC-1, CAPAN-2, HEK293, HCT15, HT29, CaCo2, DLD1, Huh7 or SNU423 cells were seeded in in each well approximately 20 hrs prior to the treatment. For U937 and THP-1 suspension cells, 2500 cells were added to the wells of a 96-well plate on the day of treatment. After a 72-hour (or 120 hrs for BxPC3, CAPAN-2, SNU423) incubation with compound or vehicle, cell growth was assessed via the Promega CellTiter 96® AQueous One Solution Cell Proliferation Assay, a colorimetric method to determine the number of viable cells. 20 μL of the CellTiter 96® AQueous One Solution Reagent was added directly into cultured wells and incubated for approximately one hour, after which the absorbance at 490 nm was read with a 96-well plate reader (Opys MR Microplate Reader). GI50 values were determined from plots of the percentage of compound-treated cell growth to vehicle cell growth vs. compound concentration (GraphPad Prism; non-linear regression, log inhibitor verse normalized response with variable slope).

NIH 3T3 cells = test: MTS cell proliferation assay, NIH 3T3; format: cell-based; conditions: Mus musculus, NIH3T3, 72-hour incubation
Method: as §1, with “All cells were maintained at 37° C. in 5% CO2 at constant 70% humidity.” left out
(§3) MTS cell proliferation assay: Cells were detached from the plates using trypsin (0.25% for 3 mins, ATCC) and counted using a hemocytometer and were plated at 3000-1500 cells per well, in a 96-well format. […] After a 72-hour (or 120 hrs for BxPC3, CAPAN-2, SNU423) incubation with compound or vehicle, cell growth was assessed via the Promega CellTiter 96® AQueous One Solution Cell Proliferation Assay, a colorimetric method to determine the number of viable cells. 20 μL of the CellTiter 96® AQueous One Solution Reagent was added directly into cultured wells and incubated for approximately one hour, after which the absorbance at 490 nm was read with a 96-well plate reader (Opys MR Microplate Reader). GI50 values were determined from plots of the percentage of compound-treated cell growth to vehicle cell growth vs. compound concentration (GraphPad Prism; non-linear regression, log inhibitor verse normalized response with variable slope).

SNU-423 cells = test: MTS cell proliferation assay, SNU-423; format: cell-based; conditions: Homo sapiens, 120 hrs incubation
Method: as §1, §2

HeLa cells = test: MTS cell proliferation assay, HeLa; format: cell-based; conditions: Homo sapiens, 72-hour incubation
Method: as §1, with “All cells were maintained at 37° C. in 5% CO2 at constant 70% humidity.” left out
as §3

synchronized HeLa cells = test: Mitotic defects in synchronized HeLa cells; format: cell-based, human
Method: FIG. 8B is an image showing DAPI staining of synchronized cells, treated as indicated in panel FIG. 8A and analyzed at 20× magnification. Samples were collected at 0, 3, 6, and 19 hours post release from a G1/S block in presence of DMSO or FQI1. Insets represent individual cells in more detail. Arrows represent cells in metaphase or prometaphase, respectively, at the 6 hour time point. FIG. 8C is a bar graph showing quantification from 75-100 total cells analyzed by DNA and α-tubulin morphologies, indicating cells containing multi-asters, at 9 hours post release from a G1/S block. Data are representative of 2 experiments. FIG. 8D is a graph showing that the mitotic arrest mediated by limited FQI1 treatment of synchronized cells is reversible. Synchronized cells were released in the presence of 5 μM of FQI1 from a G1/S block. Ten hours after the release, the cells were washed and then either incubated with media alone or re-incubated with media in the presence of 5 μM FQI1. Samples were collected 24 hours post release. Fixed cells were stained with propidium iodide to analyze DNA content. […]

[1] = test system: tubulin methylation by SET8; test: In vitro methylation assay, tubulin methylation by SET8; format: biochemical, porcine; conditions: with 862 nM LSF (FIG. 9B)
Method: (§4) One μg of recombinant GST-SET8 (in 50% glycerol) and 2 μg of the purified tubulin (MP-Bioscience) were incubated with radioactively labeled [3H] AdoMet at room temperature for overnight. As indicated, recombinant His-LSF protein or FQI1 inhibitor were added to the reaction. Samples were separated by electrophoresis through a 10% Tricine Gel (Invitrogen) and the gel was stained with Coomassie Brilliant Blue and incubated with EN3HANCE (PerkinElmer) solution. The gel was dried and exposed to autoradiography film for 1 week. Two […] of each peptide and 2 μg of purified SET8 or full-length SETD2 (Active Motif) were incubated with radioactively labeled [3H] AdoMet at room temperature overnight. Samples were spotted onto P81 filters (Whatman 3698325) and the filter were washed 3 times with 0.3 M ammonium bicarbonate. The ratio of incorporated [^3H]CH3 was determined using liquid scintillation counting.

[2] = target: T1, tubulin methylation by SET8 (Sus scrofa, UniProt M3V851); test: as above; format: biochemical, porcine; conditions: at 100 μM (FIG. 5B lane 4); no LSF added
T1 construct: consistent with the presence of LSF in the tubulin preparations; purchased MP-Bioscience; host or cells: porcine brain (tubulin); GST-SET8 recombinant
Method: as §4

synchronized HCC cells = test: Mitotic phenotypes in synchronized HCC cells; format: cell-based; conditions: cells synchronized at G1/S border, released in presence of 5 μM
Method: FIG. 4A is a graph showing tubulin polymerization assay in the presence of low concentrations of LSF (Millipore kit). FIG. 4B are bands showing co-immunoprecipitation of LSF with endogenous α-tubulin from HEK293T cells which was disrupted upon treatment with 2.5 μM FQI1 for 24 hr. FIG. 4C is a graph showing tubulin polymerization assay in the presence of FQI1 and FQI2 (Cytoskeleton kit). Nocodazole was used as a control to inhibit polymerization. […] Cells were synchronized at the G1/S border and released in presence of 5 μM FQI1. Fixed cells were stained with α-tubulin antibody and DAPI.

LSF-tubulin interaction = target: T2, LSF-tubulin interaction (Homo sapiens, UniProt Q12800); test: Co-immunoprecipitation of LSF with endogenous α-tubulin from HEK293T cells; format: cell-based; conditions: 2.5 μM for 24 hr
T2 construct: endogenous in cells; host or cells: HEK293T
Method: HEK293T, HeLa and COS7 cells were cultured in DMEM media supplemented with 10% FBS. FQI1 treatment of HEK293T cells was for 24 hours at 37° C. with 2.5 μM FQI1. Immunoprecipitation (IP) and immunofluorescence experiments were carried out as described previously. For the immunoprecipitation, 1 mg of total HEK293T cellular extract was incubated with 5 μg of either anti-SET8 antibody (Active Motif) or anti-LSF antibody (Millipore). The immunoprecipitates were blotted with anti-α tubulin, anti-β tubulin (Sigma T9026, T8328), anti-SET8 or anti-LSF (BD) antibodies as per the manufacturer's dilution recommendations. Cellular extracts were also immunoprecipitated with normal IgG (Cell Signaling Technology) as a negative control for all IP experiments.

HCC tumors = conditions: cited from earlier work
tubulin = target: T3, tubulin (Sus scrofa, UniProt P02550+P02554); test: Tubulin polymerization assay (Cytoskeleton kit); format: biochemical; conditions: FIG. 4C
T3 construct: purchased Cytoskeleton
Method: Quantitative determination of tubulin polymerization in vitro was carried out using the in vitro polymerization assay kits from either Millipore (17-10194) or Cytoskeleton (FQI1 assay only) according to the manufacturer's conditions. For the Millipopre kit, thawed tubulin was mixed with purified His-LSF, His-SET8 proteins or FQI1 in 70 μL final volumes of 1×PB-GTP solutions, and the 96-well plate was transferred to the pre-warmed (37° C.) SpectraMax M5 Microplate Reader to read UV-Visible Absorbance. Tubulin polymerization was followed by measuring the turbidity variation (light scattering) every 1 min at 350 nm for 1 hr.

[3] = target: T4, SET8 methylation of Histone H4 (Homo sapiens, UniProt Q9NQR1); test: In vitro methylation assay, SET8 methylation of Histone H4; format: biochemical; conditions: histone H4 as substrate (FIG. 5C)
T4 construct: using full-length or overlapping segments of SET8 fused to GST; made in house; host or cells: E. coli
Method: as §4

aggressive HCC cell line = conditions: in vitro; cited from earlier work
RPE-hTERT Flp-In cells = test: FQI34/FQI1 comparison, mitotic defects in RPE-hTERT Flp-In cells; format: cell-based; conditions: one hour treatment; FIG. 33
Method: RPE-hTERT Flp-In cells were incubated in serum-free DMEM:F12 media for 24 hours to synchronize the cells in G0/G1. Cells were stimulated to reenter the cell cycle with DMEM:F12 media containing 10% Fetal Bovine Serum. After 24 hours, the cells were treated with DMSO (vehicle), FQI1 (2.5 μM or 5 μM), or FQI34 (250 nM or 500 nM) for one hour. The cells were washed twice with 1×Phosphate-buffered Saline and fixed with PHEM (3.7% formaldehyde in 100 mM PIPES at pH 6.8, 10 mM EGTA, 1 mM magnesium chloride, and 0.2% Triton X-100) for 10 minutes at room temperature. The fixed cells were stained for α-tubulin using a mouse anti-α-tubulin antibody (Fisher #62204). Secondary antibodies were: DMSO/FQI1 samples—goat anti-mouse IgG conjugated to Alexa 546 (Thermo Fisher #A11003); FQI34 samples—goat anti-mouse IgG conjugated to Texas Red (Fisher #T-862). DNA was stained with Hoechst 33342. Cells were imaged using a Nikon NiE using the 40× objective and images were captured using a DS-Qi1 Mc 12 bit camera. Scale bars and merged images were generated using Fiji software.

T2 sequence (Q12800 whole entry): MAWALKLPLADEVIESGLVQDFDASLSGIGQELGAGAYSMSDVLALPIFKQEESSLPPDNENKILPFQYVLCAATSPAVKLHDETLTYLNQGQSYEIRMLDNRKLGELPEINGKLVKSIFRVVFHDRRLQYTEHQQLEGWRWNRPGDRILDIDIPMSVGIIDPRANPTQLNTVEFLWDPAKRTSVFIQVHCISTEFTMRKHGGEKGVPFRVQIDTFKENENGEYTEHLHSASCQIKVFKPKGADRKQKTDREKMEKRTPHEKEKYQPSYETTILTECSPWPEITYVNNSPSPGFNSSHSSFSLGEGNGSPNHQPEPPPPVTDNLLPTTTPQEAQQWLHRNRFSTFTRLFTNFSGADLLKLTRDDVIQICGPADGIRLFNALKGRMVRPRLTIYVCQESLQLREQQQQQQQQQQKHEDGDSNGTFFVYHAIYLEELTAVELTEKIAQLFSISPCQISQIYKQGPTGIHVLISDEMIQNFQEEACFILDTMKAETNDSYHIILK
T3 sequence (P02550 whole entry): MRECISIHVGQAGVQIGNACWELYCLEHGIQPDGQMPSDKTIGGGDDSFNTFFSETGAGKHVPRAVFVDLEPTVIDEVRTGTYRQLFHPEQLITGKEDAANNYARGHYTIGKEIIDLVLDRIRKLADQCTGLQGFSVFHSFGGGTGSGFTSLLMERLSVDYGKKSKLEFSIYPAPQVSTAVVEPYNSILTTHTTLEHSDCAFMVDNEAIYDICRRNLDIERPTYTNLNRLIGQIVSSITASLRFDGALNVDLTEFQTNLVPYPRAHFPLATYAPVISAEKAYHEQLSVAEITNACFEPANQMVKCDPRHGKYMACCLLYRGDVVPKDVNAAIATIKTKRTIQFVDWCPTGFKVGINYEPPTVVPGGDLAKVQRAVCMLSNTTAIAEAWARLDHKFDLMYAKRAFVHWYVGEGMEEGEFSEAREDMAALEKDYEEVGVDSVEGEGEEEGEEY
T3 sequence (P02554 whole entry): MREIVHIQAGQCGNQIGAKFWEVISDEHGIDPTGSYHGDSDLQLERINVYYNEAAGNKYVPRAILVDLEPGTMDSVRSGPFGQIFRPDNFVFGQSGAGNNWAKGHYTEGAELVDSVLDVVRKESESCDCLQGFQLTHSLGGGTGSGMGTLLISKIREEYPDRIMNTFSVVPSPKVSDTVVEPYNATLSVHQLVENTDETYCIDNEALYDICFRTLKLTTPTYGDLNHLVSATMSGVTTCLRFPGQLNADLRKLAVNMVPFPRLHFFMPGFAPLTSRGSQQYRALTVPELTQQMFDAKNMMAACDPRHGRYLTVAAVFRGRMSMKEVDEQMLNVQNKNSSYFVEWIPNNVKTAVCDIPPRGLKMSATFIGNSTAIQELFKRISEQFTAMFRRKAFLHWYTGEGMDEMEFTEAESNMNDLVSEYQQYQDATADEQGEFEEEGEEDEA
T4 sequence (Q9NQR1 1-352 isoform Q9NQR1-2): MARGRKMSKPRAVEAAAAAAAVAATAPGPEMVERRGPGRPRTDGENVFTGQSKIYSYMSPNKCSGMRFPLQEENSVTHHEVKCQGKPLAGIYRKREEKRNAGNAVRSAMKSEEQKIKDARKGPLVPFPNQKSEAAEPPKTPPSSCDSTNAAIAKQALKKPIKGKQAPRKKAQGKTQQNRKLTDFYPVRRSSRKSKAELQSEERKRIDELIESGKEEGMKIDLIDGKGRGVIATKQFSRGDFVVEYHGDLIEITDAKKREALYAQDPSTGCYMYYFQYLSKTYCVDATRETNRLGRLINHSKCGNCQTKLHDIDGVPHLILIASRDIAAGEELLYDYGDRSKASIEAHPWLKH
T1 sequence (M3V851 1-502): as the sequence (Q12800 whole entry) above, with T168N, S302P counted along it

GI50 (HuH7 cells) | GI50 (SNU-423 cells) | GI50 (HeLa cells) | SMILES | GI50 (NIH 3T3 cells) | reversibility of mitotic arrest after washout (synchronized HeLa cells; 5 μM for 10 hours, then washout, 24 hours post release) | multi-aster formation (synchronized HeLa cells; synchronized cells, short treatment prior to mitosis (FIG. 8C)) | effect on enhancement of tubulin methylation by exogenously added LSF [1] | decrease of tubulin methylation by SET8 [2] | mitotic phenotype (synchronized HCC cells) | co-immunoprecipitation of LSF with endogenous α-tubulin (LSF-tubulin interaction) | toxicity to normal tissues (HCC tumors; mouse HCC models) | tumor growth in mouse HCC models (HCC tumors; multiple mouse HCC models) | effect on tubulin polymerization in vitro (tubulin) | effect on SET8 methylation of Histone H4 [3] | apoptosis in HCC cell line (aggressive HCC cell line) | chromosome and spindle phenotype (DNA and α-tubulin immunofluorescence) (RPE-hTERT Flp-In cells)
158 nM | 251 nM | 300 nM | CCOc1cc(N(C)C)ccc1[C@@H]1CC(=O)Nc2cc3c(cc21)OCO3 [(R)-FQI-34] | 5800 nM | – | – | – | – | – | – | – | – | – | – | – | –
70 nM | 60 nM | – | CCOc1cc(N(C)C)ccc1[C@H]1CC(=O)Nc2cc3c(cc21)OCCO3 [(S)-FQI-37] | – | – | – | – | – | – | – | – | – | – | – | – | –
– | – | – | CCOc1ccccc1C1CC(=O)Nc2cc3c(cc21)OCO3 (stereo not drawn) [FQI1] | – | reversible | concentration-dependent increase in multi-aster formation | inhibited the ability of exogenously added LSF to enhance methylation of tubulin by SET8 | ~3 fold | abnormal mitotic phenotypes | disrupted | no observable toxicity to normal tissues | significantly inhibits tumor growth | inhibited tubulin polymerization | does not affect | induces apoptosis | condensed, but nonaligned chromosomes and disrupted spindles
